Laboratory results from patent publication US8039634B2, “Oxazole hydroxamic acid derivatives and use thereof” (SK Holdings Co., Ltd., priority 2005, dated 2011).
Values after ≈ are worked out from the molar mass of the structure shown.

What was measured:
HCT116 = experiment: In vitro toxicity / growth inhibition (CellTiter-Glo), HCT116; format: cell-based; details: Homo sapiens, HCT-116; HCT116, 48 hr
Procedure: (§1) In order to determine in vitro toxicity of a compound in accordance with the present invention, 18 species of human cancer cell lines (HeLa, cervical cancer cell line; HCT116, SW480, SW620, RKO, colon cancer cell lines; H460, H1299, A549, lung cancer cell lines; MCF7, MDA-MB231, MDA-MB453, breast cancer cell lines; Jurkat, K562, THP1, Ramos, U937, blood cancer cell lines; PC3, DU145, prostate cancer cell lines) were used. Cell lines were cultured in RPMI 1640 culture medium containing penicillin/streptomycin (100 units/mL) and heat-inactivated 5% fetal bovine serum (FBS) under standard culture conditions ([…], 5% CO2, and 100% relative humidity). Thereafter, single cell suspension was obtained via trypsin treatment and pipetting. The suspension was diluted with the same medium such that a cell density is in a range of 8×10^3 to 1.5×10^4 cells/well, and was transferred to a 96-well microtiter plate. After culturing for 24 hours, cell cultures were treated with respective compounds of Examples at various concentrations. […] The above evaluation was carried out according to the methods given in a manufacture's manual. GI50 in Table 1 below refers to a concentration that compounds of Examples cause 50% growth inhibition of various cancer cells.

HeLa = experiment: In vitro toxicity / growth inhibition (CellTiter-Glo), HeLa; format: cell-based; details: Homo sapiens, 48 hr
Procedure: as §1

H460 = experiment: In vitro toxicity / growth inhibition (CellTiter-Glo), H460; format: cell-based; details: Homo sapiens, NCI-H460; H460, 48 hr
Procedure: as §1

HDAC = experiment: Inhibition of HDAC activity (fluorometric, HeLa nuclear extract); format: biochemical, human; details: 30 min room temperature
Procedure: In order to determine inhibitory activity of a compound in accordance with the present invention on HDAC, evaluation was carried out using an aminocoumarin derivative of ω-acetylated lysine as a substrate for an enzyme. As an enzyme source, a nuclear extract obtained from human cervical cancer cell line HeLa cells was used. The above evaluation was carried out with modification of a method based on the details described in Weegener et al. (2003) Analytical Biochemistry, 321, 203-208. That is, […], […] of nuclear extract and a compound of Example 1 at different concentrations were added and maintained at room temperature for 30 min. Trypsin (10 mg/ml) and Trichostatin A (final concentration: […]) were added to the resulting mixture which was reacted at the same temperature for 20 min, thereby terminating the reaction. The enzyme activity-inhibitory concentration of the compound added was determined using a fluorometer. As a control compound, suberoylanilide hydroxamic acid (SAHA) was used. IC50 in Table 1 below refers to a concentration of the compound that leads to a 50% decrease in activity of HDAC.

Solubility = format: physicochemical
Raw cell = experiment: Inhibition of LPS-induced NO increases; format: cell-based, Mouse; details: 5 μM compound; for NO: LPS, 18 hours, Griess Reagent; for activity at 5 µM: Mus musculus, 18 h, relative to LPS alone control
Procedure: As one of the methods to confirm anti-inflammatory responses, inhibition of increases in nitric oxide (NO) due to lipopolysaccharide (LPS) was carried out. Mouse cell line (Raw cell) was cultured in RPMI 1640 culture medium containing penicillin/streptomycin (100 units/mL) and heat-inactivated 5% fetal bovine serum (FBS) under standard culture conditions ([…], 5% CO2, 37° C., and 100% relative humidity). Test compounds were dissolved in dimethylsulfoxide (DMSO) and were used as a final concentration of 1 to 40 μM. Cells were proliferated to a cell density of 5×10^3 to 2×10^4 cells on a 24-well plate and were treated with the respective compounds (equal amounts of 5 μM) 1 hour prior to treatment with LPS ([…]). The thus-treated cells were cultured for 18 hours, and thereafter the amounts of NO thus produced were measured using Griess Reagent. Measurement was confirmed using an absorption spectrophotometer at 540 nm. The value was expressed as percentage (%) relative to a control in which LPS alone was treated.

MCF7 = experiment: In vitro toxicity / growth inhibition (CellTiter-Glo), MCF7; format: cell-based; details: Homo sapiens; MCF7, 48 hr
Procedure: as §1

| SMILES | GI50 (HCT116) [µM] | GI50 (HeLa) [µM] | GI50 (H460) [µM] | IC50 (HDAC) [nM] | solubility (Solubility) [µg/mL] | NO (Raw cell) [μM/L] | activity at 5 µM (Raw cell) [%] | GI50 (MCF7) [nM] |
| --- | --- | --- | --- | --- | --- | --- | --- | --- |
| Cc1ccc(-c2oc(CCCCCCC(=O)NO)nc2-c2ccccc2)cc1 [Example 7, 7-(4-phenyl-5-p-tolyl-oxazol-2-yl)-heptanoic acid hydroxyamide] | 2.7 | 2.4 | 9.9 | 2 | 200 (≈ 528 µM) | – | – | – |
| COc1ccccc1-c1oc(CCCCCCC(=O)NO)nc1-c1ccccc1 [Example 2, 7-[5-(2-methoxy-phenyl)-4-phenyl-oxazol-2-yl]-heptanoic acid hydroxyamide] | 8.3 | 9.33 | – | 6.61 | 400 (≈ 1010 µM) | 77.9 | 97.8 | – |
| O=C(CCCCCCc1nc(-c2ccccc2)c(-c2cccc(F)c2)o1)NO [Example 6, 7-[5-(3-fluoro-phenyl)-4-phenyl-oxazol-2-yl]-heptanoic acid hydroxyamide] | 9.5 | 10.7 | 15.8 | 1.48 | 400 (≈ 1050 µM) | 70.6 | 77.1 | 3800 |
| O=C(CCCCCCc1nc(-c2ccccc2)c(-c2ccncc2)o1)NO [Example 17, 7-(4-phenyl-5-pyridin-4-yl-oxazol-2-yl)-heptanoic acid hydroxyamide] | 5.4 | 3.5 | 7.3 | 19.5 | 900 (≈ 2460 µM) | 59.6 | 46.1 | 1800 |
| CCOc1ccc(-c2oc(CCCCCCC(=O)NO)nc2-c2ccncc2)cc1 [Example 19, 7-[5-(4-ethoxy-phenyl)-4-pyridin-4-yl-oxazol-2-yl]-heptanoic acid hydroxyamide] | 4 | 2.9 | 4.1 | 0.68 | 700 (≈ 1710 µM) | – | – | 1100 |
| COc1ccc(-c2nc(CCCCCCC(=O)NO)oc2-c2cccnc2)cc1 [Example 13, 7-[4-(4-methoxy-phenyl)-5-pyridin-3-yl-oxazol-2-yl]-heptanoic acid hydroxyamide] | 3.9 | 3.9 | 4.4 | 14.5 | 900 (≈ 2280 µM) | 57.1 | 39.2 | 1000 |
| O=C(CCCCCCc1nc(-c2ccc(F)cc2)c(-c2cccnc2)o1)NO [Example 15, 7-[4-(4-fluoro-phenyl)-5-pyridin-3-yl-oxazol-2-yl]-heptanoic acid hydroxyamide] | – | 30.1 | 69 | 38.4 | 2000 (≈ 5220 µM) | 66.6 | 65.8 | – |
| COc1cccc(-c2oc(CCCCCCC(=O)NO)nc2-c2ccccc2)c1 [Example 3, 7-[5-(3-methoxy-phenyl)-4-phenyl-oxazol-2-yl]-heptanoic acid hydroxyamide] | 6.5 | 16.9 | – | 1.58 | 200 (≈ 507 µM) | – | – | – |
| O=C(CCCCCCc1nc(-c2ccccc2)c(-c2ccccc2F)o1)NO [Example 5, 7-[5-(2-fluoro-phenyl)-4-phenyl-oxazol-2-yl]-heptanoic acid hydroxyamide] | 10.7 | 3.6 | 14.2 | 1.74 | 300 (≈ 784 µM) | 69.0 | 72.7 | – |
| CCOc1ccc(-c2oc(CCCCCCC(=O)NO)nc2-c2ccccc2)cc1 [Example 8, 7-[5-(4-ethoxy-phenyl)-4-phenyl-oxazol-2-yl]-heptanoic acid hydroxyamide] | 1.2 | 1.5 | 4.2 | 1.2 | 200 (≈ 490 µM) | 63.7 | 57.7 | – |
| O=C(CCCCCCc1nc(-c2ccccc2)c(-c2ccc(F)cc2)o1)NO [Example 9, 7-[5-(4-fluoro-phenyl)-4-phenyl-oxazol-2-yl]-heptanoic acid hydroxyamide] | 5.9 | 14.2 | 19.1 | 4.97 | – | 71.4 | 79.4 | – |
| COc1ccc(-c2nc(CCCCCCC(=O)NO)oc2-c2ccc(OC)cc2)cc1 [Example 10, 7-[4,5-bis-(4-methoxy-phenyl)-oxazol-2-yl]-heptanoic acid hydroxyamide] | 2.4 | 3 | 9.2 | 0.47 | 200 (≈ 471 µM) | – | – | 800 |
| O=C(CCCCCCc1nc(-c2ccccc2)c(-c2ccccc2)o1)NO [Example 4, 7-(4,5-diphenyl-oxazol-2-yl)-heptanoic acid hydroxyamide] | 3.5 | 2.5 | – | 2 | 200 (≈ 549 µM) | – | – | 6600 |
| O=C(CCCCCCc1nc(-c2cccc(F)c2)c(-c2cccnc2)o1)NO [Example 16, 7-[4-(3-fluoro-phenyl)-5-pyridin-3-yl-oxazol-2-yl]-heptanoic acid hydroxyamide] | – | 20.7 | 52.3 | 32.3 | 1400 (≈ 3650 µM) | 63.0 | 55.7 | – |
| O=C(CCCCCCc1nc(-c2ccccc2)c(-c2ccc(O)cc2)o1)NO [Example 20, 7-[5-(4-hydroxy-phenyl)-4-phenyl-oxazol-2-yl]-heptanoic acid hydroxyamide] | 1.5 | 2.4 | 5.4 | 1.7 | 300 (≈ 789 µM) | 55.9 | 35.9 | – |
| CN(C)c1ccc(-c2nc(CCCCCCC(=O)NO)oc2-c2cccnc2)cc1 [Example 14, 7-[4-(4-dimethylamino-phenyl)-5-pyridin-3-yl-oxazol-2-yl]-heptanoic acid hydroxyamide] | 8.7 | 7.8 | 23.5 | 2.95 | 1000 (≈ 2450 µM) | 69.6 | 74.4 | 8700 |
| COc1ccc(-c2oc(CCCCCCC(=O)NO)nc2-c2ccncc2)cc1 [Example 18, 7-[5-(4-methoxy-phenyl)-4-pyridin-4-yl-oxazol-2-yl)-heptanoic acid hydroxyamide] | 3.8 | 9.1 | 11.7 | 14 | 900 (≈ 2280 µM) | 68.6 | 71.6 | – |
| COc1ccc(-c2oc(CCCCCCC(=O)NO)nc2-c2ccccc2OC)cc1 [Example 11, 7-[4-(2-methoxy-phenyl)-5-(4-methoxy-phenyl)-oxazol-2-yl]-heptanoic acid hydroxyamide] | 2.4 | 1.2 | 10.2 | 7.24 | 400 (≈ 942 µM) | 65.0 | 61.3 | – |
| CN(C)c1ccc(-c2oc(CCCCCCC(=O)NO)nc2-c2ccccc2)cc1 [Example 12, 7-[5-(4-dimethylamino-phenyl)-4-phenyl-oxazol-2-yl]-heptanoic acid hydroxyamide] | 9.8 | 14.1 | 19.5 | 5.01 | 700 (≈ 1720 µM) | 72.9 | 83.7 | 6900 |
